The values below come from patent publication US20240101548A1, “HYDROXAMATE COMPOUND, PREPARATION METHOD THEREFOR AND APPLICATION THEREOF” (SHENZHEN CHIPSCREEN BIOSCIENCES CO., LTD., priority 2020, published 2024).

Format in all cases: cell-based, human
In experiment [1] the test system is IL-2-induced JAK1/JAK3 signal pathway. Put plainly: IL-2-induced proliferation of KHYG-1 cells (JAK1/JAK3 signal). As to conditions: Homo sapiens; KHYG-1 cell proliferation, IL-2 10 ng/mL, 72 hours; read-out: Inhibition activity IC50 on IL-2-induced JAK1/JAK3 signal pathway. A digest of the protocol:
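KHYG-1 NK lymphoma cells were cultured with IL-2 and test compound at various doses for 72 h at 37 °C and 5% CO2, and proliferation was read with alamarBlue fluorescence. Inhibition was normalized to wells without compound or cytokine (0%) and IL-2 wells without compound (100%), and C50 was derived from the dose-inhibition data.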

The test system of experiment [2] is EPO-induced JAK2 signal pathway. Put plainly: EPO-induced proliferation of UT-7 cells (JAK2 signal). As to conditions: Homo sapiens, UT7; UT-7 cell proliferation, EPO 10 ng/mL, 72 hours; read-out: Inhibition activity IC50 on EPO-induced JAK2 signal pathway. A digest of the protocol: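 UT-7 cells (15000/well) stimulated with 10 ng/mL human recombinant EPO plus compound at final 0, 100, 1000 or 10000 nM, 72 h at 37° C., 5% CO2. Proliferation by alamarBlue fluorescence (Ex530/Em590); inhibition normalised to no-cytokine/no-compound (0) and EPO-only (100) wells, […] derived from dose-inhibition.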

Experiment [3] relates to IL-10-induced JAK1/TYK2 signal pathway. Put plainly: IL-10-induced JAK1/TYK2 signal pathway STAT3-Luc reporter gene assay in U2OS cells. The settings on record: Homo sapiens, U2OS, U2OS cells, STAT3-Luc reporter, IL-10 10 ng/mL; read-out: Half inhibition dose (IC50) on IL-10-induced JAK1/TYK2 signal pathway. An excerpt:
Cytokine IL-10 is one of the main members of IL-10 family. The receptor that cytokine IL-10 binds to consists of two kinds of subunits, i.e., IL-10R1 and IL-10R2, which respectively couple with JAK1 and TYK2. After the coupling of IL-10 with its receptor, interaction of phosphorylation occurs between JAK1 and TYK2 to form STAT3 docking site for phosphorylation of STAT3. The phosphorylated STAT3 enters the nucleus and drives the transcription and expression of downstream genes.
The reporter gene plasmid STAT3-Luc Reporter used in the present invention has luciferase expression sequence as the reporter gene, upstream of which is a promoter sequence containing multiple STAT3 binding sites. When phosphorylated STAT3 induced by IL-10 signal pathway binds to the promoter of STAT3-Luc Reporter plasmid, luciferase is transcribed and expressed. The excitation fluorescence catalyzed by Luciferase can be detected after the addition of […] substrate, whose intensity can quantitively reflect the activation level of the signal pathway.
Human osteosarcoma cell line U20S was commercially available from American Type Culture Collection (ATCC), and relevant culture conditions referred to those from ATCC. It was known that such cell line could express IL-10R2, JAK1, TYK2 and STAT3, therefore, by exogenous expression of IL-10R1 gene, a complete IL-10 signal pathway could be established. The human IL-10R1 subunit overexpression plasmid pCMV3-IL10RA-EGFP was constructed by Shanghai Genechem Co., Ltd., and capable of simultaneously expressing enhanced green fluorescent protein. In the subsequent detection and calculation, the signal of green fluorescent protein in the tested sample was used as a reference for transfection efficiency calibration of the luciferase reporter gene signal. Reporter plasmid STAT3-Luc Reporter was commercially available from Ji Man Biotech (Shanghai) Co., Ltd.
X-tremeGENE 9 DNA Transfection Reagent (Roche) was used for the transfection of plasmid DNA into cells, Cell Culture Lysis 5× reagent (Promega) and Luciferase Assay System (Promega) were used in cell lysate preparation and enzyme-substrate reaction for luciferase reporter gene detection. Green fluorescent protein signal and luciferase reporter gene signal were both detected by Tecan Spark™ 10M multimode microplate reader. The inhibition rate of the tested compound on the IL-10 signal pathway reporter gene signal and the half inhibition dose IC50 were both calculated using Microsoft Excel and GraphPad Prism 7.00 software.
U2OS cell line was inoculated in 96-well plate with flat bottom at 5000 cells per well, and cultured overnight at 37° C. and 5% CO2 followed by plasmid transfection. Following the instructions and using X-tremeGENE 9 DNA Transfection Reagent, pCMV3-IL10RA-EGFP and STAT3-Luc Reporter plasmids were co-transfected into the inoculated U2OS cells. After 24 hours of transfection, the tested compound was added respectively for a final concentration of 0, 0.1, 0.3, 1, 3, 10, 30, 100, or 300 nM. After 6 hours of culture at 37° C. and 5% CO2, IL-10 cytokine (Human IL-10 PEPROTECH 200-10-10UG) was added to each well for a final concentration of 10 ng/mL, the well in which neither compound nor cytokine was added was designated as 0% control well. The culture was continued for 24 hours before testing.
Cell lysate was prepared by using Cell Culture Lysis reagent and transferred to 96-well plate with half-well clear bottom. The green fluorescent protein signal value was detected at Ex485/Em520 using Tecan microplate reader, and recorded. After adding to each well the luciferase substrate from Luciferase Assay System, the signal value of luciferase-substrate reaction was immediately detected at 560 nm using Tecan microplate reader, and recorded.
Using Microsoft Excel software, the signal value of luciferase-substrate reaction of each well was calculated and calibrated based on the signal value of green fluorescent protein of each well. […]

Turning to `CCONC(=O)c1cnc(Nc2ccc(C)nn2)cc1Nc1cc(F)c(C2CC2)cc1N(C)S(C)(=O)=O` [Example 176, 4-((4-cyclopropyl-5-fluoro-2-(N-methylmethanesulfonamido)phenyl)amino)-N-ethoxy-6-((6-methylpyridazin-3-yl)amino)nicotinamide], the IC50 in experiment [1] is greater than 10000 nM; in experiment [2], greater than 10000 nM; in experiment [3], 2.32 nM.
Regarding `CN(c1cc(C2CC2)ccc1Nc1cc(Nc2cccc(F)n2)ncc1C(=O)NOCC(F)(F)F)S(C)(=O)=O` [Example 119, 4-((4-cyclopropyl-2-(N-methylmethanesulfonamido)phenyl)amino)-6-((6-fluoropyridin-2-yl)amino)-N-(2,2,2-trifluoroethoxy)nicotinamide], the IC50 is greater than 10000 nM in experiment [1], greater than 10000 nM in experiment [2] and 1.53 nM in experiment [3].
In the case of `CCONC(=O)c1cnc(Nc2cnccn2)cc1Nc1ccc(C2CC2)cc1N(C)S(C)(=O)=O` [Example 145, 4-((4-cyclopropyl-2-(N-methylmethanesulfonamido)phenyl)amino)-N-ethoxy-6-(pyrazin-2-ylamino)nicotinamide], the IC50 is greater than 10000 nM in experiment [1], greater than 10000 nM in experiment [2] and 0.301 nM in experiment [3].
On to `C#Cc1ccc(Nc2cc(Nc3ccc(OC)cn3)ncc2C(=O)NOCC)c(N(C)S(C)(=O)=O)c1` [Example 141, N-ethoxy-4-((4-ethynyl-2-(N-methylmethanesulfonamido)phenyl)amino)-6-(5-methoxypyridin-2-ylamino)nicotinamide], for which the IC50 in experiment [1] was greater than 10000 nM; in experiment [2] it was greater than 10000 nM; in experiment [3], 0.489 nM.
Regarding `CONC(=O)c1cnc(Nc2cccc(F)n2)cc1Nc1ccc(C)cc1N(C)S(C)(=O)=O` [Example 106, 6-((6-fluoropyridin-2-yl)amino)-N-methoxy-4-((4-methyl-2-(N-methylmethanesulfonamido)phenyl)amino)nicotinamide], the IC50 is greater than 10000 nM in experiment [1], greater than 10000 nM in experiment [2] and 1.81 nM in experiment [3].
As for `C#Cc1ccc(Nc2cc(Nc3ccc(F)cn3)ncc2C(=O)NOCC)c(N(C)S(C)(=O)=O)c1` [Example 144, N-ethoxy-4-((4-ethynyl-2-(N-methylmethanesulfonamido)phenyl)amino)-6-(5-fluoropyridin-2-ylamino)nicotinamide], the IC50 in experiment [1] is greater than 10000 nM; in experiment [2] it was greater than 10000 nM; in experiment [3], 0.969 nM.
In the case of `CONC(=O)c1cnc(Nc2ccc(F)cn2)cc1Nc1ccccc1N(C)S(C)(=O)=O` [Example 4, 6-((5-fluoropyridin-2-yl)amino)-N-methoxy-4-((2-(N-methylmethanesulfonamido)phenyl)amino)nicotinamide], the IC50 in experiment [1] was greater than 10000 nM; in experiment [2] it was greater than 10000 nM; in experiment [3], 0.705 nM.
For the molecule `CCONC(=O)c1cnc(Nc2cc(C)c(F)cn2)cc1Nc1ccc(C2CC2)cc1N(C)S(C)(=O)=O` [Example 125, 4-((4-cyclopropyl-2-(N-methylmethanesulfonamido)phenyl)amino)-N-ethoxy-6-((5-fluoro-4-methylpyridin-2-yl)amino)nicotinamide], the figures for the IC50 in experiment [1], in experiment [2] and in experiment [3] were greater than 10000 nM, greater than 10000 nM and 0.946 nM, respectively.
For `CCONC(=O)c1cnc(Nc2cccnn2)cc1Nc1ccc(C2CC2)cc1N(C)S(C)(=O)=O` [Example 153, 4-((4-cyclopropyl-2-(N-methylmethanesulfonamido)phenyl)amino)-N-ethoxy-6-(pyridazin-3-ylamino)nicotinamide], the figures for the IC50 in experiment [1], in experiment [2] and in experiment [3] were greater than 10000 nM, greater than 10000 nM and 1.51 nM, respectively.
Take `[2H]C([2H])([2H])NC(=O)c1cnc(Nc2ccccn2)cc1Nc1cccc(-c2ncc(F)cn2)c1OC` [Example 253, 4-((3-(5-fluoropyrimidin-2-yl)-2-methoxyphenyl)amino)-N-(methyl-d3)-6-(pyridin-2-ylamino)nicotinamide, reference compound]: the IC50 in experiment [3] is 9.75 nM.
